# Patent publication US8987195B2 (priority 2012, dated 2015)
# Read-outs that look alike come from different tables or passages of the source.
# Legend:
# [1] = target: HCV NS3/4A protease genotype 1b (Hepatitis C virus genotype 1b, UniProt P26663); assay: HCV NS3/4A protease time-resolved fluorescence (TRF) assay, Ki against genotype 1b; assay type: biochemical; settings: IC50 [gt-1b], NS3/4A protease TRF assay, genotype 1b enzyme 0.2 nM
# Summary of the method: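 Ki values come from IC50 fits corrected for substrate concentration and KM. The time-resolved fluorescence protease reaction used 25 nM peptide substrate, 2.5 h, room temperature, pH 7.5 HEPES buffer, after 30 min enzyme–inhibitor preincubation.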
# [2] = system: HCV genotype 1b replicon; assay: HCV replicon assay, genotype 1b replicon EC50; assay type: cell-based, Hepatitis C virus; settings: Hepatitis C virus, HCV replicon, genotype 1b, read-out: EC50 [gt-1b]
# Summary of the method: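 Replicon cells (Neo^r, some luciferase:Neo^r fusion); G418 removed at plating; compound dilution series, 24-48 h. Readout: RNA by 32P-probe hybridization/protection or TaqMan, normalized to cyclophilin A RNA, or luciferase. EC50 vs DMSO control, 4-parameter fit.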
# Sequence of HCV NS3/4A protease genotype 1b (P26663 1027-1657): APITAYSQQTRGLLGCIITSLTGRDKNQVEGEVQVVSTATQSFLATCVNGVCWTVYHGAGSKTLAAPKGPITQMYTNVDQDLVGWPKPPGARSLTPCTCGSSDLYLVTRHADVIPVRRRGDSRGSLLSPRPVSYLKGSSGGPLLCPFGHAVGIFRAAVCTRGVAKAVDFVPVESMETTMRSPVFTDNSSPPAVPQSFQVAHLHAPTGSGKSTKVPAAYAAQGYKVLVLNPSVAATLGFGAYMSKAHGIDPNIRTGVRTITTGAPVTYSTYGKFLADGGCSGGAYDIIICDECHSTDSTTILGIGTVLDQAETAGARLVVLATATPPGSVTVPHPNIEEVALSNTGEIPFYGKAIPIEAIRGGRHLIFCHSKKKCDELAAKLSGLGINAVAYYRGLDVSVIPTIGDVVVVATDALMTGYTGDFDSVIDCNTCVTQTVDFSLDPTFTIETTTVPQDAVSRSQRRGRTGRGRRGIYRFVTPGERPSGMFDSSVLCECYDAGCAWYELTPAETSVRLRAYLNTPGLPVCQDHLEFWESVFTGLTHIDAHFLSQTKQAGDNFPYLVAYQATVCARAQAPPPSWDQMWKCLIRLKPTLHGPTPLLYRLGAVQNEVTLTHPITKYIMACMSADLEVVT
# Sequence of HCV NS3/4A protease genotype 1b (P26663 1658-1711): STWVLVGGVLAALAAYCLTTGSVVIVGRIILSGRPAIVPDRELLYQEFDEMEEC
SMILES,IC50 ([1]; K+ salt) [nM],EC50 ([2]; K+ salt) [nM],IC50 [1] [nM],EC50 [2] [nM]
"COc1ccc2nc(C(F)F)c3c(c2c1)CC[C@]1(C[C@H]2C(=O)N[C@]4(C(=O)NS(=O)(=O)C5(C)CC5)C[C@H]4/C=C\CCCCC[C@H](NC(=O)O[C@H](C)C(C)C)C(=O)N2C1)O3 [Example 443, (2R)-3-methylbutan-2-yl [(2R,6S,12Z,13aS,14aR,16aS)-5′-(difluoromethyl)-9′-methoxy-14a-{[(1-methylcyclopropyl)sulfonyl]carbamoyl}-5,16-dioxo-1,1′,2′,5,6,7,8,9,10,11,13a,14,14a,15,16,16a-hexadecahydrospiro[cyclopropa[e]pyrrolo[1,2-a][1,4]diazacyclopentadecine-2,3′-pyrano[2,3-c]quinolin]-6-yl]carbamate]",0.025,1.79,–,–
"CC[C@H](C)OC(=O)N[C@H]1CCCCC/C=C\[C@@H]2C[C@@]2(C(=O)NS(=O)(=O)C2(C)CC2)NC(=O)[C@@H]2C[C@]3(CCc4c(c(C(F)F)nc5ccc(OC)cc45)O3)CN2C1=O [Example 444, (2S)-butan-2-yl [(2R,6S,12Z,13aS,14aR,16aS)-5′-(difluoromethyl)-9′-methoxy-14a-{[(1-methylcyclopropyl)sulfonyl]carbamoyl}-5,16-dioxo-1,1′,2′,5,6,7,8,9,10,11,13a,14,14a,15,16,16a-hexadecahydrospiro[cyclopropa[e]pyrrolo[1,2-a][1,4]diazacyclopentadecine-2,3′-pyrano[2,3-c]quinolin]-6-yl]carbamate]",0.014,1.31,–,–
"CC[C@@H](C)OC(=O)N[C@H]1CCCCC/C=C\[C@@H]2C[C@@]2(C(=O)NS(=O)(=O)C2(C)CC2)NC(=O)[C@@H]2C[C@]3(CCc4c(c(C(F)F)nc5ccc(OC)cc45)O3)CN2C1=O [Example 445, (2R)-butan-2-yl [(2R,6S,12Z,13aS,14aR,16aS)-5′-(difluoromethyl)-9′-methoxy-14a-{[(1-methylcyclopropyl)sulfonyl]carbamoyl}-5,16-dioxo-1,1′,2′,5,6,7,8,9,10,11,13a,14,14a,15,16,16a-hexadecahydrospiro[cyclopropa[e]pyrrolo[1,2-a][1,4]diazacyclopentadecine-2,3′-pyrano[2,3-c]quinolin]-6-yl]carbamate]",0.014,1.14,–,–
"COc1ccc2nc(C(F)F)c3c(c2c1)CC[C@]1(C[C@H]2C(=O)N[C@]4(C(=O)NS(=O)(=O)C5(C)CC5)C[C@H]4/C=C\CCCCC[C@H](NC(=O)OC(C)C)C(=O)N2C1)O3 [Example 446, propan-2-yl [(2R,6S,12Z,13aS,14aR,16aS)-5′-(difluoromethyl)-9′-methoxy-14a-{[(1-methylcyclopropyl)sulfonyl]carbamoyl}-5,16-dioxo-1,1′,2′,5,6,7,8,9,10,11,13a,14,14a,15,16,16a-hexadecahydrospiro[cyclopropa[e]pyrrolo[1,2-a][1,4]diazacyclopentadecine-2,3′-pyrano[2,3-c]quinolin]-6-yl]carbamate]",–,–,0.013,1.17
"COc1ccc2nc(C(F)(F)F)c3c(c2c1)CC[C@]1(C[C@H]2C(=O)N[C@]4(C(=O)NS(=O)(=O)C5(C)CC5)C[C@H]4/C=C\CCCCC[C@H](NC(=O)OC(C)C)C(=O)N2C1)O3 [Example 447, propan-2-yl [(2R,6S,12Z,13aS,14aR,16aS)-9′-methoxy-14a-{[(1-methylcyclopropyl)sulfonyl]carbamoyl}-5,16-dioxo-5′-(trifluoromethyl)-1,1′,2′,5,6,7,8,9,10,11,13a,14,14a,15,16,16a-hexadecahydrospiro[cyclopropa[e]pyrrolo[1,2-a][1,4]diazacyclopentadecine-2,3′-pyrano[2,3-c]quinolin]-6-yl]carbamate]",–,–,0.019,1.37
"CCCOC(=O)N[C@H]1CCCCC/C=C\[C@@H]2C[C@@]2(C(=O)NS(=O)(=O)C2(C)CC2)NC(=O)[C@@H]2C[C@]3(CCc4c(c(C(F)(F)F)nc5ccc(OC)cc45)O3)CN2C1=O [Example 448, propyl [(2R,6S,12Z,13aS,14aR,16aS)-9′-methoxy-14a-{[(1-methylcyclopropyl)sulfonyl]carbamoyl}-5,16-dioxo-5′-(trifluoromethyl)-1,1′,2′,5,6,7,8,9,10,11,13a,14,14a,15,16,16a-hexadecahydrospiro[cyclopropa[e]pyrrolo[1,2-a][1,4]diazacyclopentadecine-2,3′-pyrano[2,3-c]quinolin]-6-yl]carbamate]",–,–,0.006,2.69
"COc1ccc2nc(C(F)(F)F)c3c(c2c1)CC[C@]1(C[C@H]2C(=O)N[C@]4(C(=O)NS(=O)(=O)C5(C)CC5)C[C@H]4/C=C\CCCCC[C@H](NC(=O)OC4(C(C)C)CC4)C(=O)N2C1)O3 [Example 449, 1-(propan-2-yl)cyclopropyl [(2R,6S,12Z,13aS,14aR,16aS)-9′-methoxy-14a-{[(1-methylcyclopropyl)sulfonyl]carbamoyl}-5,16-dioxo-5′-(trifluoromethyl)-1,1′,2′,5,6,7,8,9,10,11,13a,14,14a,15,16,16a-hexadecahydrospiro[cyclopropa[e]pyrrolo[1,2-a][1,4]diazacyclopentadecine-2,3′-pyrano[2,3-c]quinolin]-6-yl]carbamate]",–,–,0.007,1.39
"COc1ccc2nc(C(F)(F)F)c3c(c2c1)CC[C@]1(C[C@H]2C(=O)N[C@]4(C(=O)NS(=O)(=O)C5(C)CC5)C[C@H]4/C=C\CCCCC[C@H](NC(=O)OC4CCC4)C(=O)N2C1)O3 [Example 450, cyclobutyl [(2R,6S,12Z,13aS,14aR,16aS)-9′-methoxy-14a-{[(1-methylcyclopropyl)sulfonyl]carbamoyl}-5,16-dioxo-5′-(trifluoromethyl)-1,1′,2′,5,6,7,8,9,10,11,13a,14,14a,15,16,16a-hexadecahydrospiro[cyclopropa[e]pyrrolo[1,2-a][1,4]diazacyclopentadecine-2,3′-pyrano[2,3-c]quinolin]-6-yl]carbamate]",–,–,0.019,1.69
"CCC1(OC(=O)N[C@H]2CCCCC/C=C\[C@@H]3C[C@@]3(C(=O)NS(=O)(=O)C3(C)CC3)NC(=O)[C@@H]3C[C@]4(CCc5c(c(C(F)(F)F)nc6ccc(OC)cc56)O4)CN3C2=O)CC1 [Example 452, 1-ethylcyclopropyl [(2R,6S,12Z,13aS,14aR,16aS)-9′-methoxy-14a-{[(1-methylcyclopropyl)sulfonyl]carbamoyl}-5,16-dioxo-5′-(trifluoromethyl)-1,1′,2′,5,6,7,8,9,10,11,13a,14,14a,15,16,16a-hexadecahydrospiro[cyclopropa[e]pyrrolo[1,2-a][1,4]diazacyclopentadecine-2,3′-pyrano[2,3-c]quinolin]-6-yl]carbamate]",–,–,0.03,2.4
"COCCCOc1ccc2nc(C)c3c(c2c1)CC[C@]1(C[C@H]2C(=O)N[C@]4(C(=O)NS(=O)(=O)C5(C)CC5)C[C@H]4/C=C\CCCCC[C@H](NC(=O)OCC(C)(C)C)C(=O)N2C1)O3 [Example 453, 2,2-dimethylpropyl [(2R,6S,12Z,13aS,14aR,16aS)-9′-(3-methoxypropoxy)-5′-methyl-14a-{[(1-methylcyclopropyl)sulfonyl]carbamoyl}-5,16-dioxo-1,1′,2′,5,6,7,8,9,10,11,13a,14,14a,15,16,16a-hexadecahydrospiro[cyclopropa[e]pyrrolo[1,2-a][1,4]diazacyclopentadecine-2,3′-pyrano[2,3-c]quinolin]-6-yl]carbamate]",–,–,0.017,1.78
